Broadly, the Ki is a dissociation constant, usually derived from enzyme kinetics or from competition with a known ligand. High values mean weaker binding, low ones tighter binding.

Square brackets hold non-standard residues; d marks the D form. Peptide text beside a SMILES is read from it. Tyr(3-I) = N[C@@H](Cc1ccc(O)c(I)c1)C(=O)O; Orn = NCCC[C@H](N)C(=O)O

For four molecules, Ki and Kd results are on record in patent US20080286201A1, “Caspase-3 Substrate Comprising Imaging Agents” (priority 2005, published 2008).

One test concerns the target T1, caspase-3 (Homo sapiens, UniProt P42574).
T1 construct: purchased BIOMOL
T1 sequence (P42574 29-175 limits assumed): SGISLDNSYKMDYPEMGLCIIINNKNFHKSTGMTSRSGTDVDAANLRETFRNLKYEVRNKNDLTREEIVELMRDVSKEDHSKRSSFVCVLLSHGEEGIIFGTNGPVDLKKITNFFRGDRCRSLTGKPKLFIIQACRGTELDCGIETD
T1 sequence (P42574 176-277 limits assumed): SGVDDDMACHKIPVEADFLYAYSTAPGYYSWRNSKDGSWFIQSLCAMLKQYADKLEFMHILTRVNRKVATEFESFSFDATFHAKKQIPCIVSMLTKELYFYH
Briefly: Caspase-3 assay kit (BIOMOL QuantiZyme Assay System), potency (Ki) of caspase-3 test substrates. In kind it is biochemical. The procedure: Potency (Ki) of the caspase-3 test substrates was evaluated using a commercially available caspase-3 assay kit (BIOMOL QuantiZyme™ Assay System, CASPASE-3 Assay Kit for Drug Discovery). The DEVD substrate sequence was bio-modified with the additional of both tyrosine residues for radiolabelling and leader sequence to aid cell penetration. In vitro potency was maintained following both of these bio-modifications.

The subject of test [1] is phosphatidylserine (PS) on the outer membrane of apoptotic cells. The settings on record: read-out: affinity of binding to phosphatidylserine; cited from earlier work.

Take `CC(=O)N[C@@H](CC(=O)O)C(=O)N[C@@H](CCC(=O)O)C(=O)N[C@H](C(=O)N[C@@H](CC(=O)O)C(=O)Nc1ccc2c(C)cc(=O)oc2c1)C(C)C` [Ac-Asp-Glu-Val-Asp-AMC, reference compound]: at caspase-3, the affinity corresponds to a Ki of 7.74 µM. With “Annexin-5: endogenous human protein (RMM 36 kDa) which binds to phosphatidylserine on apoptotic cells”, the Kd in test [1] was roughly 0.001 µM. In turn, `CC(=O)N[C@@H](CC(=O)O)C(=O)N[C@@H](CCC(=O)O)C(=O)N[C@H](C(=O)N[C@@H](CC(=O)O)C(=O)NCC(=O)N[C@@H](Cc1ccc(O)c(I)c1)C(N)=O)C(C)C` [Compound 2] (Ac-DEVDG[Tyr(3-I)]-NH2) showed an inhibition constant Ki on caspase-3 of 7.83 µM.

The molecule `CC(=O)N[C@@H](CCCNC(=N)N)C(=O)N[C@@H](CCCCN)C(=O)N[C@@H](CCCCN)C(=O)N[C@@H](CCCNC(=N)N)C(=O)N[C@@H](CCCNC(=N)N)C(=O)N[C@@H](CCCN)C(=O)N[C@@H](CCCNC(=N)N)C(=O)N[C@@H](CCCNC(=N)N)C(=O)N[C@@H](CCCNC(=N)N)C(=O)NCC(=O)N[C@@H](CC(=O)O)C(=O)N[C@@H](CCC(=O)O)C(=O)N[C@H](C(=O)N[C@@H](CC(=O)O)C(=O)NCC(=O)N[C@@H](CCCCN)C(=O)N[C@@H](CCCCN)C(=O)N[C@@H](Cc1ccc(O)c(I)c1)C(N)=O)C(C)C` [Compound 22] (Ac-RKKRR[Orn]RRRGDEVDGKK[Tyr(3-I)]-NH2) returned an inhibitory constant (Ki) at caspase-3 of 9.24 µM.
